Results on 4 compounds are retold here after patent EP4813970A1, “L-SERINE HAVING REDUCED HEAVY METAL AMOUNT, PHARMACEUTICAL COMPOSITION THEREOF, PREPARATION METHOD THEREFOR, AND USE THEREOF” (priority 2023, dated 2025).

The test system of one data set is HT22 cells. Nature of the data set: Mitochondrial membrane potential by JC-1 staining after DMNQ damage. It counts as cell-based. Here is the method: HT22 cells were cultured under 37°C and 5% CO2 conditions using DMEM medium containing 10% FBS, 100 unit/mL penicillin, and 100 µg/mL streptomycin. […] After checking the condition of the cells, 5 µM JC-1 was added to the medium and the cells were stained for 30 minutes under 37°C and 5% CO2 conditions, treated with 0.25% trypsin-EDTA and the cells were collected in an e-tube, washed twice with PBS, and analyzed with Attune NxT. The effect of L-serine, which contains class 1 heavy metals, on mitochondria, which affects both neurological diseases and metabolic diseases, was confirmed depending on the concentration of class 1 heavy metals. DMNQ causes oxidative stress and excessive production of ROS, which induces mitochondrial membrane potential depolarization, thereby resulting in mitochondrial dysfunction and apoptosis. In mitochondria, an electrochemical proton gradient is created through the mitochondrial membrane, which produces ATP, and when mitochondria are damaged and apoptosis occurs, mitochondrial permeability pores are opened and thus mitochondrial transmembrane potential decreases (membrane potential depolarization). Mitochondrial membrane potential difference, which is an indicator of apoptosis, was measured through JC-1 staining. JC-1 enters the mitochondria in normal cells due to changes in mitochondrial membrane potential and forms a multicomplex, thereby giving it a red color, whereas when apoptosis occurs due to depolarization of the mitochondrial membrane potential, JC-1 remains in the cytoplasm and gives it a green color. Four hours before DMNQ treatment, neurons were treated with unpurified L-serine, primary purified L-serine, and secondary purified L-serine, and then treating with DMNQ for 2 hours and 30 minutes, the degree of protection of neurons was measured by measuring the mitochondrial membrane potential difference through JC-1 staining.

For another data set, the system named is primary neurons. Description: Multi-electrode array (MEA) of neuronal electrical activity under DMNQ neurotoxicity. It counts as cell-based, mouse. The following applies: FIG. 3. Here is the method:
After adding an equal volume of culture medium, cells were separated by a mechanical method using a pipet, and single cells were separated using a 40 µm cell strainer. After centrifugation at 2,000 rpm for 5 minutes, the supernatant was removed and resuspended in culture medium. […] A 50% PEI solution, which was prepared by mixing borate buffer and PEI in a 1:1 ratio, was diluted with a 0.1% PEI solution using borate buffer and then filtered using a 0.22 µm filter. […] Laminin stock stored at -20°C was thawed at 4°C and then diluted in serum-free medium (20 ng/mL). 40 µL of 0.1% PEI was added to each well of a 24-well MEA plate, and then the 24-well MEA plate was placed in a cell incubator at 37°C and 5% CO2 for 60 minutes. After washing the 24-well MEA plate three times with sterile DW, the laminin solution was added 50 µL per well and placed overnight in a cell incubator at 37°C and 5% CO2. After removing the laminin solution from the 24-well MEA plate, the prepared primary neurons were seeded at a concentration of 1.0 × 10^5 cells/well. […] Neuronal electrical activity was measured using the Maestro Edge system every 30 minutes for 15 minutes, and the same amount of secondary purified L-serine was pretreated for 4 hours based on 0.1 mM unpurified L-serine. After drug pretreatment for 4 hours, neuronal electrical activity was measured 4 times at 30 minute intervals during 2-hour treatment with 20 µM DMNQ, and the data was analyzed using a neural metric tool and an axis metric plotting tool. […] For the MEA, neurons were cultured on electrodes for several weeks to form a network and then the electrical signals, that is action potentials, generated from the neurons were measured. […] The primary neuronal culture was cultured in 24-well MEA plates for approximately 15 days, and when electrical signals were passed through sporadic bursts and activated into synchronous network bursts, test substances were treated at concentrations not affecting cell viability, and action potentials were measured and compared.

Data set [1] has as its system patients with hereditary sensory and autonomic neuropathy type 1 (HSAN1). The following applies: cited from earlier work.
Data set [2] has as its system patients with amyotrophic lateral sclerosis (ALS). The settings on record: cited from earlier work.
In data set [3] the test system is fetuses with 3-PGDH deficiency. The settings on record: cited from earlier work.
Data set [4] deals with patients with autism spectrum disorder. Nature of the data set: Phase 2 clinical trial of L-serine in children under 11 years of age. The settings on record: 400 mg/kg for 24 weeks.
Data set [5] has as its system 5XFAD (Tg6799; five familial mutation). Description: Survival on 9-month administration in an Alzheimer's disease animal model. It counts as in vivo, mice. The settings on record: 500 mg/kg orally 5 days a week for 9 months, 3 to 12 months of age. The protocol:
In order to measure the extent to which the class 1 heavy metal content in L-serine affects neurons when taken over a long period of time, long-term administration of L-serine for 9 months from the early stage of the disease (3 months of age) to 12 months of age was conducted using 5XFAD (Tg6799; five familial mutation), which is an animal model of Alzheimer's disease, and the effect of the drug on animal viability was confirmed. Specifically, WT & 5XFAD mice (purchased from The Jackson Lab) administered with saline and WT & 5XFAD mice administered with L-serine were composed of 12 mice per group. Saline and 500 mg/kg of unpurified L-serine and secondary purified L-serine were orally administered 5 days a week for 9 months, and after administration, the survival rate (%) was measured through daily observation of mice and designated as survival rate.

Where [6] appears, read: oral twice a day, maximum dose of 15 g/day for 6 months.
Setting [7] is: 4 hours pretreatment (based on 0.1 mM unpurified L-serine), then 2-hour 20 µM DMNQ.

Like-named read-outs stand apart in the source and are kept apart here.

As for `COC1=C(OC)C(=O)c2ccccc2C1=O` [DMNQ], the “mitochondrial damage (green)” value in the data set with HT22 cells (20 µM DMNQ alone) came to 81.4±4.2%. In the data set on primary neurons (20 µM DMNQ alone, compared to the control group), the “active electrodes (spikes and network bursts)” value (“active electrodes” below) is “significantly reduced”.

With `N[C@@H](CO)C(=O)O` [L-serine], the “mitochondrial damage (green)” value is 32.1±1.52% with HT22 cells (0.5 mM, pre-treated 4 hours, then 20 µM DMNQ); 18.7±11.1% with HT22 cells (1 mM, pre-treated 4 hours, then 20 µM DMNQ); 1.5±0.23% in the data set on HT22 cells (2.5 mM, pre-treated 4 hours, then 20 µM DMNQ). Further, the “safety and Charcot-Marie-Tooth Neuropathy Score (CMTNS)” value in data set [1] (400 mg/kg/day for up to 2 years) is “effects of improving safety and Charcot-Marie-Tooth Neuropathy Score (CMTNS) were confirmed”. For the same compound, the “1-deoxySL (dSL)” value in data set [1] (oral, up to 400 mg/kg/day for 10 and 52 weeks) was “reduced”. Moreover, the “progression of the patients' disease” value in data set [2] (setting [6]) is “showed the effect of delaying the progression of the patients' disease”. Moreover, the safety result in data set [2] (setting [6]) is listed as “safe”; in data set [2] (phase 2 clinical trials, up to 15 g twice a day for 6 months), “shown to be safe”. Also, the “brain growth in fetuses” value in data set [3] (maternal supply of L-serine during pregnancy) is “shown to improve brain growth”. Moreover, in data set [3] (postnatal children (birth to 4 years old)), the neurological symptoms result is on record as “shown to prevent neurological symptoms”. Besides, the adverse reactions result in data set [3] (pregnant women, fetuses, and newborns) is “no adverse reactions were observed”. For the same compound, the side effects entry in data set [4] is given as “without any unusual side effects”. Besides, the treatment efficiency entry in data set [4] is reported as “about 40%”.

`N[C@@H](CO)C(=O)O` [secondary purified L-serine, L-serine] gave a survival rate in data set [5] of 80%. Moreover, in the data set with primary neurons (setting [7]), the “active electrodes” value is given as “active electrodes in a state without DMNQ treatment were maintained”.

In data set [5], `N[C@@H](CO)C(=O)O` [unpurified L-serine, L-serine] returned a survival rate of 58%. Moreover, the “active electrodes” value with primary neurons (setting [7]) is given as “the effect was not distinct”.
